Tests used:
[1] = test system: patients with an elevated LDL-C (≧100 mg/dL or 2.59 mmol/L) treated with a stable dose of atorvastatin 10 mg; assay: Study 2: randomized, double-blind, placebo-controlled 8-week study of 316P 150 mg E2W with atorvastatin 10 mg or 80 mg; format: in vivo, human
Description: This was a randomized, double-blind, 3-parallel-groups, placebo-controlled, fixed dose/dose regimen, multicenter, 8-week study in subjects with primary hypercholesterolemia, aged 18-75 years. One aim of this study was to assess the efficacy and safety of 316P in patients with an elevated LDL-C (≧100 mg/dL or 2.59 mmol/L) treated with a stable dose of atorvastatin 10 mg.
During the screening period, patients had to be stabilized to atorvastatin 10 mg for at least 6 weeks, if they are not already. Then, after 1 additional screening week, patients were centrally randomized via IVRS/IWRS in a 1:1:1 ratio to one of the 3 treatment groups (placebo for 316P+atorvastatin 80 mg, 316P 150 mg E2W+atorvastatin 80 mg, 316P 150 mg E2W+atorvastatin 10 mg) and treated in a double-blind manner for approximately 8 weeks. 316P was administered every 2 weeks on site trough subcutaneous injection and atorvastatin was administered orally once daily in the evening at home. The double-blind treatment period was then followed by an 8-week follow-up period.
Inclusion criteria: • Patients (patients receiving a lipid lowering treatment other than atorvastatin/or not at stable dose of atorvastatin 10 mg for at least 6 weeks prior to screening period, or drug naive patients) with primary hypercholesterolemia likely to have low-density lipoprotein cholesterol (LDL-C)≧100 mg/dL (≧2.59 mmol/L) at the end of the run-in period on atorvastatin therapy (Week-1). • OR • Patients with primary hypercholesterolemia treated with stable dose of atorvastatin 10 mg for at least 6 weeks prior to screening period and likely to have low-density lipoprotein cholesterol (LDL-C)≧100 mg/dL (≧2.59 mmol/L) at the screening visit (Week-1).
Duration of Study Period Per Subject:
• Arm 1: The first group of patients receives one subcutaneous injection of 1 mL of antibody 316P, administered in the abdomen every two weeks, with a dose regimen at 150 mg, for a double-blind treatment period of 8 weeks; • Atorvastatin is administered once per day at a stable dose of 10 mg as background therapy. • Atorvastatin is administered at a dose of 80 mg once during the double-blind treatment period of 8 weeks. • Arm 2: The second group of patients receives one subcutaneous injection of 1 mL of a placebo solution, administered in the abdomen every two weeks, with a dose regimen at 150 mg, for a double-blind treatment period of 8 weeks; • Atorvastatin is administered once per day at a stable dose of 10 mg as background therapy. • Atorvastatin is administered at a dose of 80 mg (2 over-encapsulated atorvastatin 40 mg tablets) once during the double-blind treatment period of 8 weeks. • Arm 3: The third group of patients receives one subcutaneous injection of 1 mL of antibody 316P, administered in the abdomen every two weeks, with a dose regimen at 150 mg, for a double-blind treatment period of 8 weeks; • Atorvastatin is administered once per day at a stable dose of 10 mg as background therapy. • Atorvastatin is administered at a dose of 10 mg (1 over-encapsulated atorvastatin 10 mg tablet+1 matching placebo tablet) once during the double-blind treatment period of 8 weeks. Primary and Key Secondary Endpoints Primary Endpoints
The primary efficacy variable is the percent change in calculated LDL-C from baseline to Week 8, which is defined as: 100×(calculated LDL-C value at Week 8-calculated LDL-C value at baseline)/calculated LDL-C value at baseline.
In case of unavailable calculated LDL-C value at Week 8 as defined above, then the last calculated LDL-C value measured during the efficacy period and before the Week 8 time window was used to impute the missing Week 8 calculated LDL-C value (Last Observation Carried Forward [LOCF] procedure). […]

[2] = test system: male Syrian hamster; assay: Study 4: cholesterol lowering effect of 316P alone and with atorvastatin in hamster; format: in vivo
Excerpt: This is an animal study on the cholesterol lowering effect of 316P, a fully human PCSK9 blocking monoclonal antibody in male Syrian hamster
The aim of this study was to investigate the effect of 316P, a human monoclonal antibody to human PCSK9, alone and in combination with statins on expression of the hepatic LDLR and the resulting effects on serum LDL-C.
The maximal effect on LDL-C (−17/−27/−60%) was seen within 7 days. PK data of 316P are in line with the dose-dependent effect on LDL-C.

[3] = 316P 150 mg with atorvastatin, 8 weeks, consistent with LDL-C decrease
[4] = 316P 150 mg+atorvastatin 80 mg vs placebo+atorvastatin 80 mg, p<0.0001
[5] = single s.c. injection 1/3/10 mg/kg

316P: fully human anti-PCSK9 antibody comprising a HCVR as shown in SEQ ID NO: 90 and LCVR as shown in SEQ ID NO: 92 [Antibody 316P]
safety signal ([1]; 150 mg E2W, 8 weeks): No particular safety signal was noted
tolerability ([1]; 150 mg E2W, 8 weeks of treatment, all treatment groups): well tolerated
HDL-C ([1]; 316P 150 mg co-administered with atorvastatin 10 mg or 80 mg): trend of increase
HDL-C percent change from baseline, LS mean ([1]; 316P 150 mg co-administered with atorvastatin 10 mg, 8 weeks): +2.6%
HDL-C percent change from baseline, LS mean ([1]; 316P 150 mg co-administered with atorvastatin 80 mg, 8 weeks): +5.8%
Apo-B/ApoA-1 ratio [1, 3]: Consistent results
ApoB [1, 3]: Consistent results
Total-C [1, 3]: Consistent results
non HDL-C [1, 3]: Consistent results
median reduction from baseline in LDL-C at 8 weeks ([1]; 316P 150 mg+atorvastatin 10 mg group): −70.4%
median reduction from baseline in LDL-C at 8 weeks ([1]; 316P 150 mg+atorvastatin 80 mg group): −70.6%
LS mean difference in percent change from baseline in LDL-C at 8 weeks [1, 4]: −55.8%
effect size estimate, rank-based analysis of covariance, percent change in LDL-C at 8 weeks [1, 4]: −54.5%
troponin levels ([1]; all treatment groups): no change
LDLR expression ([2]; 316P on top of Atorvastatin): increased LDLR expression
serum LDL-C ([2]; 316P on top of Atorvastatin): decreased serum LDL-C
statin resistance ([2]; 316P on top of Atorvastatin): could overcome the statin resistance
combination treatment compared with single treatment ([2]; 316P plus Atorvastatin): more effective than single treatment with 316P alone
maximal effect on LDL-C ([2]; single s.c. injection 1 mg/kg): −17%
maximal effect on LDL-C ([2]; single s.c. injection 3 mg/kg): −27%
maximal effect on LDL-C ([2]; single s.c. injection 10 mg/kg): −60%
duration of dose-dependent decrease in LDL-C [2, 5]: more than 2 weeks
time to maximal effect on LDL-C [2, 5]: ≤ 7 days

Reference: patent US9682013B2, “Pharmaceutical compositions comprising human antibodies to PCSK9” (SANOFI BIOTECHNOLOGY, priority 2011, dated 2017)
